Drawing on PubChem BioAssay (NCI), this text covers TGI for 8 compounds.

Among the test systems are ACHN renal; SF-268 CNS; LOX IMVI melanoma; SK-MEL-28 melanoma; MCF7 breast; NCI-H23 lung; OVCAR-8 ovarian; KM12 colon; SF-295 CNS; SNB-75 CNS; MOLT-4 leukemia; SK-MEL-2 melanoma; UACC-62 melanoma; UO-31 renal; UACC-257 melanoma; BT-549 breast; EKVX NSCLC; M14 melanoma; SK-OV-3 ovarian.
What all share (test): NCI-60 cell line screen, 48 h

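48-hour exposure; five concentrations; linearly interpolated endpoints. TGI: concentration producing complete growth inhibition.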

Take `Nn1c(-c2ccccc2Nc2ccccc2-c2n[nH]c(=S)n2N)n[nH]c1=S`: the TGI with ACHN renal, in the assay with SF-268 CNS, with LOX IMVI melanoma, in the assay on SK-MEL-28 melanoma, with MCF7 breast and with NCI-H23 lung was more than 50 µM each time. Further, the TGI in the assay with OVCAR-8 ovarian, in the assay on KM12 colon, with SF-295 CNS, in the assay on SNB-75 CNS, with MOLT-4 leukemia and with SK-MEL-2 melanoma was more than 50 µM throughout. The TGI in the assay on UACC-62 melanoma, in the assay with UO-31 renal, in the assay with UACC-257 melanoma, in the assay on BT-549 breast, with EKVX NSCLC and with M14 melanoma was more than 50 µM throughout.

Regarding `COc1ccc2cc(-c3ccc(OC)c(OC)c3)c(=O)oc2c1`, the TGI with ACHN renal, in the assay with SF-268 CNS, with LOX IMVI melanoma, in the assay with SK-MEL-28 melanoma, with MCF7 breast and in the assay with NCI-H23 lung was more than 100 µM in each case. For the same compound, the TGI with OVCAR-8 ovarian, in the assay with KM12 colon, in the assay on SF-295 CNS, in the assay on MOLT-4 leukemia, with SK-OV-3 ovarian and in the assay on SK-MEL-2 melanoma was more than 100 µM in each case. The TGI with UACC-62 melanoma, with UO-31 renal, in the assay with UACC-257 melanoma, in the assay with BT-549 breast, in the assay on EKVX NSCLC and in the assay on M14 melanoma was more than 100 µM in each case.

With `NC(=S)SC1=NNC2(C(=O)N1)c1ccccc1-c1ccccc12`, the TGI with ACHN renal, with SF-268 CNS, in the assay with LOX IMVI melanoma, with SK-MEL-28 melanoma, in the assay on MCF7 breast and in the assay with NCI-H23 lung was more than 10 µM in each case. The TGI with OVCAR-8 ovarian, in the assay on KM12 colon, in the assay on SF-295 CNS, with SNB-75 CNS, in the assay with SK-OV-3 ovarian and in the assay on UACC-62 melanoma was more than 10 µM in each case. The TGI with UO-31 renal, with UACC-257 melanoma, in the assay with BT-549 breast, in the assay with EKVX NSCLC and in the assay on M14 melanoma was more than 10 µM each time.

As for `CN(C)S(=O)(=O)n1ccnc1`, the TGI with ACHN renal, with SF-268 CNS, in the assay on LOX IMVI melanoma, in the assay with SK-MEL-28 melanoma, in the assay on MCF7 breast and in the assay on NCI-H23 lung was more than 100 µM each time. Besides, the TGI in the assay on KM12 colon, in the assay on SF-295 CNS, in the assay with SNB-75 CNS, in the assay with MOLT-4 leukemia, with SK-OV-3 ovarian and in the assay with SK-MEL-2 melanoma was more than 100 µM in each case. For the same compound, the TGI in the assay on UO-31 renal, in the assay on UACC-257 melanoma, in the assay with BT-549 breast, with EKVX NSCLC and in the assay with M14 melanoma was more than 100 µM each time.

Regarding `Brc1ccc(-c2ccc(-c3ccc(-c4ccc(Br)s4)s3)s2)s1`, the TGI with ACHN renal, in the assay with SF-268 CNS, in the assay with LOX IMVI melanoma, in the assay on SK-MEL-28 melanoma, in the assay with MCF7 breast and with NCI-H23 lung was more than 100 µM throughout. Besides, the TGI in the assay on OVCAR-8 ovarian, in the assay with KM12 colon, in the assay on SF-295 CNS, in the assay on SNB-75 CNS, with MOLT-4 leukemia and in the assay with SK-OV-3 ovarian was more than 100 µM each time. Besides, the TGI in the assay with UACC-62 melanoma, in the assay on UO-31 renal, in the assay with UACC-257 melanoma, in the assay on BT-549 breast, in the assay with EKVX NSCLC and in the assay on M14 melanoma was more than 100 µM each time.

Take `COc1cc(O)c2c(=O)c3ccccc3n(C)c2c1`: the TGI in the assay with ACHN renal, in the assay with SF-268 CNS, with LOX IMVI melanoma, in the assay on SK-MEL-28 melanoma, in the assay on MCF7 breast and in the assay with NCI-H23 lung was more than 100 µM throughout. In addition, the TGI in the assay with OVCAR-8 ovarian, in the assay on KM12 colon, in the assay on SF-295 CNS, in the assay with MOLT-4 leukemia, in the assay on SK-OV-3 ovarian and in the assay with SK-MEL-2 melanoma was more than 100 µM throughout. For the same compound, the TGI in the assay with UACC-62 melanoma, in the assay on UO-31 renal, in the assay with UACC-257 melanoma, in the assay on BT-549 breast, with EKVX NSCLC and with M14 melanoma was more than 100 µM throughout.

Regarding `CC(C)=C1C(=O)C[C@]2(C)C/C=C(\C)CC/C=C(\C)CC[C@@H]12`, the TGI is 16.4 µM in the assay on ACHN renal; 18 µM in the assay with SF-268 CNS; 15.2 µM in the assay on SK-MEL-28 melanoma; 30.4 µM in the assay on MCF7 breast; 23.9 µM with NCI-H23 lung; 16 µM in the assay on OVCAR-8 ovarian. For the same compound, the TGI in the assay on KM12 colon was 16.1 µM; in the assay with SF-295 CNS, 31.3 µM; in the assay on SNB-75 CNS, 20.2 µM; in the assay on MOLT-4 leukemia, 18.2 µM; in the assay on SK-OV-3 ovarian, more than 50 µM; with SK-MEL-2 melanoma it was 15.8 µM. Besides, the TGI came to 15.3 µM with UACC-62 melanoma; 15.1 µM in the assay on UO-31 renal; 25.4 µM in the assay on UACC-257 melanoma; 24.8 µM in the assay on BT-549 breast; 32.5 µM with EKVX NSCLC; 15.8 µM in the assay with M14 melanoma.

`C/C(=N\N=C(\N)OB(F)F)c1ccccn1`: the TGI in the assay with ACHN renal, in the assay on SF-268 CNS, in the assay with LOX IMVI melanoma, in the assay on SK-MEL-28 melanoma, in the assay with MCF7 breast and in the assay on NCI-H23 lung was more than 100 µM each time. The TGI in the assay with OVCAR-8 ovarian was more than 100 µM; with KM12 colon it was more than 100 µM; in the assay on SF-295 CNS, more than 100 µM; with SNB-75 CNS it was 55.7 µM; with SK-MEL-2 melanoma it was more than 100 µM; in the assay with UACC-62 melanoma, more than 100 µM. The TGI with UO-31 renal, in the assay with UACC-257 melanoma, in the assay on BT-549 breast, with EKVX NSCLC and with M14 melanoma was more than 100 µM each time.
